For assay [1], the target named is T1, Short transient receptor potential channel 4 (Mus musculus, UniProt Q9QUQ5).
T1 sequence (Q9QUQ5 whole entry): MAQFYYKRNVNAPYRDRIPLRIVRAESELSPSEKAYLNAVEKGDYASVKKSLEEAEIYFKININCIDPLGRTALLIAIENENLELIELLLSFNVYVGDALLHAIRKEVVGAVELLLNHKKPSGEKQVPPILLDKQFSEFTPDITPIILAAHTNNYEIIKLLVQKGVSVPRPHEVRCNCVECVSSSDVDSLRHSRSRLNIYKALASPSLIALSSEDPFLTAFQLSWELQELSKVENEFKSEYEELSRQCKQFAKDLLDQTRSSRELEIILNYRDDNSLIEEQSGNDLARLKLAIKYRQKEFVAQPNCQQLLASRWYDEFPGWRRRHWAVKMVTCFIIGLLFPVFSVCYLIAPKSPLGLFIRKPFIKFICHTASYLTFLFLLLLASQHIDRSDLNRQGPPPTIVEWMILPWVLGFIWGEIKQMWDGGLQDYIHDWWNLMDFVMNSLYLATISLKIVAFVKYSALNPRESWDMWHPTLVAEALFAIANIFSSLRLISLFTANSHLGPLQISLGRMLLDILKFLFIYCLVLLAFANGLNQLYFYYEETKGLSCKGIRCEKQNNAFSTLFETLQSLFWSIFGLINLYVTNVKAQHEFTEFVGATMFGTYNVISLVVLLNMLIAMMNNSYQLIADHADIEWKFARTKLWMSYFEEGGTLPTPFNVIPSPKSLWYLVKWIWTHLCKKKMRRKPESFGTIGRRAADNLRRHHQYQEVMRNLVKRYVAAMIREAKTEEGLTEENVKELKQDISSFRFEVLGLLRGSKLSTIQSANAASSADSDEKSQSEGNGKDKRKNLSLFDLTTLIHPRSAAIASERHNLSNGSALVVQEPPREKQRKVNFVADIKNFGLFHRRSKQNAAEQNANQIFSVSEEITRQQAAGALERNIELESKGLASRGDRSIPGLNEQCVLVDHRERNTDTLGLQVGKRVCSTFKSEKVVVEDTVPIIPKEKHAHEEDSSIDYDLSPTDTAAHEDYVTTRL
Nature of the assay: TRPC4 positive allosteric modulators, dose response, cell-based, HEK293 TRPC4/mu-opioid, Fluo-4 calcium, EC20 DAMGO (AID 434941).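 Further: HEK293 cells coexpressing TRPC4 and mu opioid receptor stimulated by EC20 DAMGO.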 The assay is classed as functional.

For assay [2], the system named is Vero. Kind of assay: cytotoxicity of synthesized analogs in Vero 76, SAR follow-up, cytotoxicity control for West Nile virus antiviral project, Vero 76 cells (AID 2414). The assay is classed as functional. Conditions: Chlorocebus sabaeus.
For assay [3], the system named is Vero. Nature of the assay: cytotoxicity of synthesized analogs in Vero cells, SAR follow-up, cytotoxicity control for West Nile virus antiviral project, cell-based, set II (AID 2402). The assay is classed as functional. The note with it: Chlorocebus sabaeus.
In assay [4] the test system is Vero. Kind of assay: Vero E6 cell cytotoxicity, SAR follow-up, cytotoxicity control for West Nile virus antiviral project, synthesized analogs (AID 2244). The note with it: Chlorocebus sabaeus. It is filed as functional.
The nature of assay [5]: A Cell Based Assay for the Identification of Probe candidate Compounds with Anti- Venezuelan Equine Encephalitis virus. [Related pubchem assays: 2409, 2419, 1621, 2238, 2405, 2024, 2065, 2402, 2414, 1635, 1650, 2244 ]. The assay is classed as functional.
Assay [6] relates to Vero. Kind of assay: host cell cytotoxicity of antiviral hits, dose response, cytotoxicity control for West Nile virus antiviral project, secondary assay (AID 1650). Conditions: Chlorocebus sabaeus. It is filed as functional.
The subject of assay [7] is Vero. Kind of assay: West Nile virus CPE inhibition, SAR follow-up, cell-based, synthesized analogs (AID 2238). It is filed as functional. The note with it: Chlorocebus sabaeus.
For assay [8], the system named is Vero. Kind of assay: West Nile virus antiviral activity, cell-based, CPE readout (AID 1621). The assay is classed as functional. Conditions: Chlorocebus sabaeus.
Assay [9] addresses G-protein coupled receptor 55 (Homo sapiens, UniProt Q9Y2T6). Nature of the assay: GPR55 agonists via beta-arrestin recruitment, primary screen, imaging, U2OS cells, beta-arrestin-GFP redistribution (AID 1961). It is filed as functional. (In general: Arrestin recruitment assays detect the binding of arrestin to an activated receptor.)
For assay [10], the target named is Alkaline phosphatase, placental type (Homo sapiens, UniProt P05187). Kind of assay: PLAP enzyme inhibitors, confirmation, biochemical, luminescence (AID 1512). The assay is classed as functional.
The target of assay [11] is T2, Tyrosine-protein phosphatase non-receptor type 7 (Homo sapiens, UniProt P35236).
T2 sequence (P35236 whole entry): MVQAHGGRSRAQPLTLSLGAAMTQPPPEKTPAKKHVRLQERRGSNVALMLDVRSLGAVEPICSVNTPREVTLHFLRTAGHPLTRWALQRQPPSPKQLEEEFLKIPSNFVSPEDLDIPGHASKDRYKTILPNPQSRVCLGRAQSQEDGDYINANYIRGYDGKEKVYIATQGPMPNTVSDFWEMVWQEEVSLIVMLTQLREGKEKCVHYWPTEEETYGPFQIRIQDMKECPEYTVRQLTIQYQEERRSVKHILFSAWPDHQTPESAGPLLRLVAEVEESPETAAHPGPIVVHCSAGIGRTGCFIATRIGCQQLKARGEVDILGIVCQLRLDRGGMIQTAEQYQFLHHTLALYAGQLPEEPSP
Nature of the assay: SAR analysis of chemical inhibitors of HePTP using a Fluorescent assay - Set 2. [Related pubchem assays (depositor defined):AID1059, AID1077, AID1661, AID2085, AID521]. The assay is classed as functional.

The target in assay [12] is Dual specificity protein phosphatase 3 (Homo sapiens, UniProt P51452). Kind of assay: SAR VHR1 Fluorescent Assay for In Vitro dose response studies Set 2. [Related pubchem assays (depositor defined):AID1654, AID1661, AID1878]. It is filed as functional.
Assay [13] addresses 1-acylglycerol-3-phosphate O-acyltransferase ABHD5/Perilipin-5 (Homo sapiens, UniProt Q00G26+Q8WTS1). Nature of the assay: Luminescence-based biochemical high throughput dose response assay for inhibitors of the interaction of the lipase co-activator protein, abhydrolase domain containing 5 (ABHD5) with perilipin-5 (MLDP; PLIN5) (2K validation set). [Related pubchem assays (depositor defined):AID493035, AID493241].

A further assay concerns the target Perilipin-1/ABHD5 (Homo sapiens, UniProt O60240+Q8WTS1). Kind of assay: Luminescence-based biochemical high throughput dose response assay for inhibitors of the interaction of the lipase co-activator protein, abhydrolase domain containing 5 (ABHD5) with perilipin-1 (PLIN1) (2K validation set). [Related pubchem assays (depositor defined):AID493027, AID493057].

Assay [14] relates to Vero. Nature of the assay: cells. Conditions: Chlorocebus sabaeus. It is filed as functional, cell-based.
In assay [15] the test system is Vero. Kind of assay: cells. The assay is classed as functional. Conditions: Chlorocebus sabaeus.
Assay [16] in a line: HeLa cell cytotoxicity, dose response, cytotoxicity control for MgcRacGAP inhibitor project (AID 624300). The assay is classed as functional.
The target in a further assay is Mu-type opioid receptor (Homo sapiens, UniProt P35372). Kind of assay: SAR Analysis of Antagonists of the MOR Receptor using an Image-Based Assay - Set 3. [Related pubchem assays (depositor defined):AID1777, AID1785, AID1786, AID1966, AID2133, AID2136, AID2284, AID2285, AID2420]. The assay is classed as functional.
The target in assay [17] is Delta-type opioid receptor (Homo sapiens, UniProt P41143). Nature of the assay: SAR Analysis of Antagonists of the DOR Receptor using an Image-Based Assay - Set 3. [Related pubchem assays (depositor defined):AID1777, AID1785]. It is filed as functional.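 Further: U2OS cells expressing DOR1 and beta-arrestin GFP stimulated with 100 nM SNC80; imaging of GFP-tagged beta-arrestin moving into spots after receptor activation.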
Assay [18] concerns the target T3, Kappa-type opioid receptor (Homo sapiens, UniProt P41145). Kind of assay: SAR analysis of small molecule antagonists of the kappa opioid receptor via a luminescent beta-arrestin assay - Set 3. [Related pubchem assays (depositor defined):AID1777, AID1778, AID1785, AID1786, AID1966, AID2133, AID2136, AID2285, AID2495]. The assay is classed as functional.
Assay [19] deals with T3, Kappa-type opioid receptor. Nature of the assay: SAR analysis of Antagonists of the Kappa Opioid Receptor (KOR) using an Image-Based Assay - Set 3. [Related pubchem assays (depositor defined):AID1777, AID1785]. The assay is classed as functional.

The results in this text go back to ChEMBL document CHEMBL1201862, “PubChem BioAssay data set” (2004).

SMILES strings stand for the structures. Calls of active or inactive are those of the source.

T3 sequence (P41145 whole entry): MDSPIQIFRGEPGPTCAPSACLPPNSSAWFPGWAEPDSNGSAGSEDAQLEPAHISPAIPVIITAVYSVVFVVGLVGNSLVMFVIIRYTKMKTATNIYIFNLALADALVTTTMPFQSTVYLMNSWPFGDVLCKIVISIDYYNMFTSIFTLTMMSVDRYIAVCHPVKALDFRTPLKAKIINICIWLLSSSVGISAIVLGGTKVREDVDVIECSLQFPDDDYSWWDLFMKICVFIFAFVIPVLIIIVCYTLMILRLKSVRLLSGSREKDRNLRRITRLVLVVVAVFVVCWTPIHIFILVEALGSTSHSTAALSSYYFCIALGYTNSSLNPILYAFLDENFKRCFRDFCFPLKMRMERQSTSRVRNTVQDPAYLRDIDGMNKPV
Chain of Dual specificity protein phosphatase 3 (P51452 whole entry, the tested form may be a part): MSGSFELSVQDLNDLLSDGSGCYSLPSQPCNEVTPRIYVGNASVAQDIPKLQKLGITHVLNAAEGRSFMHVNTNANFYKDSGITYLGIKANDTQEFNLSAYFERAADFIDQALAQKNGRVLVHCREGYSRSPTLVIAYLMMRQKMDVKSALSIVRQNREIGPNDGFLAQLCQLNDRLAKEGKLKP
Chain of Delta-type opioid receptor (P41143 whole entry): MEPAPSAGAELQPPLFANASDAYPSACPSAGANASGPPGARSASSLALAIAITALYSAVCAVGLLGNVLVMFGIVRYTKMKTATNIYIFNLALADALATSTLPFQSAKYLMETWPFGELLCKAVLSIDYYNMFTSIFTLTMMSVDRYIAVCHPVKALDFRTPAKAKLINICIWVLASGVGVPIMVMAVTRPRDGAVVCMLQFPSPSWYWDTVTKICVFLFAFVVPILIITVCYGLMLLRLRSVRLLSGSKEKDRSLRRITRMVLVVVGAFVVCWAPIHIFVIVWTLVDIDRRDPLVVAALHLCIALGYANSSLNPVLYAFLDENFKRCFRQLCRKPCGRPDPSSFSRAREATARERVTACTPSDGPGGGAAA
Chain of Perilipin-1/ABHD5 (Q8WTS1 whole entry, the tested form may be a part): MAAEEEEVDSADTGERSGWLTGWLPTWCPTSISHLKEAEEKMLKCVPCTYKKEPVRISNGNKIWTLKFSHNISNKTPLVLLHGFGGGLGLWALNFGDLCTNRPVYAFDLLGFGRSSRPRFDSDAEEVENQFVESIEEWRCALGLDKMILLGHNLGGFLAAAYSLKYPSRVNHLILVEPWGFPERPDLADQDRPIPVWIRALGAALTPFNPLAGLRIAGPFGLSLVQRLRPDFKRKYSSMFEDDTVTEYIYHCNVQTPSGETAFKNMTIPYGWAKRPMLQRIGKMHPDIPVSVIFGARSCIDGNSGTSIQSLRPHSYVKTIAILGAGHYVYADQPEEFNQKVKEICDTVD
Chain of Perilipin-1/ABHD5 (O60240 whole entry, the tested form may be a part): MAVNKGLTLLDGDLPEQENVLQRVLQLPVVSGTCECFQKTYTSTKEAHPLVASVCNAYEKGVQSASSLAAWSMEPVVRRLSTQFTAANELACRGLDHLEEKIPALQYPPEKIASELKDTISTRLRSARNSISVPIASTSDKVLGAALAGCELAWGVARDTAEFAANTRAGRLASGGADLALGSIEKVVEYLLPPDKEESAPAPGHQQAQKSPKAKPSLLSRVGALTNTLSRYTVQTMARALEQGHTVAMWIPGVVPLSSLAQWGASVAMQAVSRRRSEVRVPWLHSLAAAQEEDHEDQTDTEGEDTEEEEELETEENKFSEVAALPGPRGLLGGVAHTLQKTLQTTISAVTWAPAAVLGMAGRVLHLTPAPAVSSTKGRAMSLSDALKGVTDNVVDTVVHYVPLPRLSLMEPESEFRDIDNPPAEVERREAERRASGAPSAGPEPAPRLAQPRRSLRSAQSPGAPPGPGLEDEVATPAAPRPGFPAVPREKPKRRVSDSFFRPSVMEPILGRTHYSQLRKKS
Chain of Mu-type opioid receptor (P35372 whole entry): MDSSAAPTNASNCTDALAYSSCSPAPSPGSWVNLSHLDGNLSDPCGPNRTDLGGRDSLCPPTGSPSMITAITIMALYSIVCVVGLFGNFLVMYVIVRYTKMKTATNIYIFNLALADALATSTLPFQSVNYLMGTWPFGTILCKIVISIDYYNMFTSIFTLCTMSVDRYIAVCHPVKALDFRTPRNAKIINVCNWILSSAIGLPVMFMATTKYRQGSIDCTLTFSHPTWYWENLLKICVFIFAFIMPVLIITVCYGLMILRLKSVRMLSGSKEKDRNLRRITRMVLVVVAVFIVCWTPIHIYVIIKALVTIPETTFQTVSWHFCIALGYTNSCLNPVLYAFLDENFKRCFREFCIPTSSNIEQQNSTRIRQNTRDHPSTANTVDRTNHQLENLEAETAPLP
Chain of Alkaline phosphatase, placental type (P05187 whole entry): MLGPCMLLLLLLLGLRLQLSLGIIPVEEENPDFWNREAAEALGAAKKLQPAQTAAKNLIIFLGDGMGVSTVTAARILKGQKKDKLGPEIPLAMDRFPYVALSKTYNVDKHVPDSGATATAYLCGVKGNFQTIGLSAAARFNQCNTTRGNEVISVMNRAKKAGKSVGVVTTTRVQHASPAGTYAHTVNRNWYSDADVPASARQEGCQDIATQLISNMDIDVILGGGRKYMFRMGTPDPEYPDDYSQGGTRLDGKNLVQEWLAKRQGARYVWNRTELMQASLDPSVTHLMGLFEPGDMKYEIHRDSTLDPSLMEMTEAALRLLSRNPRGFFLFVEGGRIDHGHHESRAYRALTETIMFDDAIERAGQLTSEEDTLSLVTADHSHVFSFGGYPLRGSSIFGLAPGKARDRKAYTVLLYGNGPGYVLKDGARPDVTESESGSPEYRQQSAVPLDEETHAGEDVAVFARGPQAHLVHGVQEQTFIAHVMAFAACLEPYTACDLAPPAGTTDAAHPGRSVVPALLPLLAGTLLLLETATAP
Chain of G-protein coupled receptor 55 (Q9Y2T6 whole entry): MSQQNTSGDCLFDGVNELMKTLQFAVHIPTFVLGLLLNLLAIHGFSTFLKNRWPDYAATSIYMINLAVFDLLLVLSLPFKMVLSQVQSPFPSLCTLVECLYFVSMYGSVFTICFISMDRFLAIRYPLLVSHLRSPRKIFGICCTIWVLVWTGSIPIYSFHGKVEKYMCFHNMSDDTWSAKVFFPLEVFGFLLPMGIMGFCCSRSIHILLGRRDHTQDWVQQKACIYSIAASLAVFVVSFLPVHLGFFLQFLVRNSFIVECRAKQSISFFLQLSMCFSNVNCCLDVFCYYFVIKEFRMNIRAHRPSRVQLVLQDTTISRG
Chain of 1-acylglycerol-3-phosphate O-acyltransferase ABHD5/Perilipin-5 (Q00G26 whole entry, the tested form may be a part): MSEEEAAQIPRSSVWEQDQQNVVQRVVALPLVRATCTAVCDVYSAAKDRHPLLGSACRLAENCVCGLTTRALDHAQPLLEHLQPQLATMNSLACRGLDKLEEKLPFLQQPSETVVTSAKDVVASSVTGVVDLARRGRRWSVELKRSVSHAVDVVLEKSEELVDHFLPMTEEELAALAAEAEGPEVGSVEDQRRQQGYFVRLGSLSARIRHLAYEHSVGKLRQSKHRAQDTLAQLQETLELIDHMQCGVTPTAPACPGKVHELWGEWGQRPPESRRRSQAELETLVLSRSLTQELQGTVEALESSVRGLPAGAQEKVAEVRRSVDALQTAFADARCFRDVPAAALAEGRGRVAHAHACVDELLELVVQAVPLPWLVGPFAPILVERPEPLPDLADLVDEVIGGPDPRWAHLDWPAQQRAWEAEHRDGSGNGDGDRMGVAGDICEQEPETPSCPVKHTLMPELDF
Chain of 1-acylglycerol-3-phosphate O-acyltransferase ABHD5/Perilipin-5 (Q8WTS1 whole entry, the tested form may be a part): as the sequence (Q8WTS1 whole entry, the tested form may be a part) above

Usually EC50 stands for the concentration at which the effect is half-maximal. As for `O=C(NCc1ccccc1)C1=C[C@H](c2ccc(C(F)(F)F)cc2)C[C@H](OCc2ccc(CO)cc2)O1`, the EC50 in assay [1] is 5.96 µM (active).

Broadly, the CC50 is the concentration giving 50% cytotoxicity. Usually IC50 stands for the concentration that gives 50% inhibition. Turning to `CC1CCN(CCCNC(=O)c2cc3c(s2)-c2ccccc2OC3)CC1`, the CC50 in the assay with Vero [2] was > 66.6 µM (active); with Vero [3], 19.5 µM (active); in the assay on Vero [4], 26.2 µM (active); in the assay on Vero [6] it was > 100 µM (active). Besides, the IC50 in [5] was 18.2 µM (active); in the assay with Vero [7] it was > 40 µM (active); with Vero [8] it was 25.1 µM (active).

Turning to `CC(C)C[C@@H](CSc1ccc(Br)cc1)N1CCN(CCc2ccccc2)CCC1=O`, the EC50 in assay [9] was 7.59 µM (active).

In the case of `Cc1ccc(C)c(NC(S)=NNC(=O)c2ccc(Br)o2)c1`, the IC50 in assay [10], in assay [11] and in assay [12] was > 100 µM (inactive) throughout.

Take `COC(=O)C1=C(C)N(Cc2ccco2)C(=O)/C1=C\c1ccc([N+](=O)[O-])cc1`: the IC50 in assay [13] is 2.27 µM (active); on Perilipin-1/ABHD5, 2.07 µM (active); with Vero [14] it was > 25 µM (active). The half-maximal cytotoxic concentration (CC50) was 17.6 µM (active) with Vero [15] and 62.9 µM (active) in assay [16].

On to `O=C(Cn1c(=O)c2cccn2c2ccccc21)NCCCN1CCN(Cc2ccccc2)CC1`, for which the IC50 was > 32 µM (inactive) at Mu-type opioid receptor, > 32 µM (inactive) in assay [17], > 20 µM (inactive) in assay [18] and > 32 µM (inactive) in [19].
